From ChEMBL document CHEMBL5625220, “Discovery of anti-neuroinflammatory agents from 1,4,5,6-tetrahydrobenzo[2,3]oxepino[4,5-d]pyrimidin-2-amine derivatives by regulating microglia polarization” (Eur J Med Chem, 2023)

Columns and labels:
[1] = Cytotoxicity against mouse BV-2 cells assessed as survival rate at 5 uM incubated for 24 hrs by CCK8 assay relative to control; assay type: toxicity, cell-based; conditions: read-out: Survival
BV-2 [2] = assay: Anti-inflammatory activity in mouse BV-2 cells assessed as inhibition of LPS-induced TNF-alpha production at 5 uM preincubated with LPS for 2 hrs followed by compound addition and measured after 24 hrs by ELISA relative to control; assay type: functional
BV-2 [3] = assay: Anti-inflammatory activity in mouse BV-2 cells assessed as inhibition of LPS-induced TNF-alpha production at 2.5 ug/ml preincubated with LPS for 2 hrs followed by compound addition and measured after 24 hrs by ELISA relative to control; assay type: functional

Work on COc1cc(OC)c2c(c1)OCCC1=C2NC(N)=NC1c1ccccc1F (centres undefined) yielded a viability at 24 h, 5 µM [1] of 143% and an inhibition at 5 µM (BV-2 [2]) of 73.4%.
In the case of COc1cc(OC)c2c(c1)OCCC1=C2NC(N)=NC1c1ccc(F)cc1C(F)(F)F (centres undefined), the viability at 24 h, 5 µM [1] is reported as 87.4% and the inhibition at 5 µM (BV-2 [2]) is reported as 66.4%.
Work on COc1cc(OC)c2c(c1)OCC/C(=C\c1cc(F)cc(F)c1)C2=O yielded a viability at 24 h, 5 µM [1] of 150% and an inhibition at 5 µM (BV-2 [2]) of 73.6%.
COc1cc(OC)c2c(c1)OCCC1=C2NC(N)=NC1c1cc(F)ccc1F (centres undefined) gave a viability at 24 h, 5 µM [1] of 156% and an inhibition at 5 µM (BV-2 [2]) of 73.5%.
Compound COc1cc(OC)c2c(c1)OCC/C(=C\c1cccc(C(F)(F)F)c1F)C2=O has a viability at 24 h, 5 µM [1] of 117% and an inhibition at 5 µM (BV-2 [2]) of 88.7%.
For COc1cc(OC)c2c(c1)OCCC(C(O)c1cccc(C(F)(F)F)c1)C2=O (centres undefined), the viability at 24 h, 5 µM [1] was 150% and the inhibition at 5 µM (BV-2 [2]) was 65.1%.
With S=C(S)N1CCCC1 [PYRROLIDINE DITHIOCARBAMATE] the inhibition at 2.5 µg/mL (BV-2 [3]) was 58.4%.
COc1cc(OC)c2c(c1)OCC/C(=C\c1cc(F)ccc1F)C2=O gave a viability at 24 h, 5 µM [1] of 168% and an inhibition at 5 µM (BV-2 [2]) of 74.1%.
Compound COc1cc(OC)c2c(c1)OCCC1=C2NC(N)=NC1c1ccccc1C(F)(F)F (centres undefined) has a viability at 24 h, 5 µM [1] of 113% and an inhibition at 5 µM (BV-2 [2]) of 70.2%.
Compound COc1cc(OC)c2c(c1)OCC/C(=C\c1ccccc1C(F)(F)F)C2=O has a viability at 24 h, 5 µM [1] of 142% and an inhibition at 5 µM (BV-2 [2]) of 74.3%.
In the case of COc1cc(OC)c2c(c1)OCC/C(=C\c1c(F)cccc1C(F)(F)F)C2=O, the viability at 24 h, 5 µM [1] is reported as 116% and the inhibition at 5 µM (BV-2 [2]) is reported as 36.8%.
Compound COc1cc(OC)c2c(c1)OCC/C(=C\c1ccc(F)cc1C(F)(F)F)C2=O has a viability at 24 h, 5 µM [1] of 114% and an inhibition at 5 µM (BV-2 [2]) of 69.5%.
Compound COc1cc(OC)c2c(c1)OCC/C(=C\c1cccc(F)c1C(F)(F)F)C2=O has a viability at 24 h, 5 µM [1] of 120% and an inhibition at 5 µM (BV-2 [2]) of 68.3%.
COc1cc(OC)c2c(c1)OCCC1=C2NC(N)=NC1c1ccc(C(F)(F)F)cc1 (centres undefined) gave a viability at 24 h, 5 µM [1] of 150% and an inhibition at 5 µM (BV-2 [2]) of 72.1%.
Compound COc1cc(OC)c2c(c1)OCC/C(=C\c1ccc(C(F)(F)F)cc1)C2=O has a viability at 24 h, 5 µM [1] of 145% and an inhibition at 5 µM (BV-2 [2]) of 65.8%.
